According to patent publication US5340920A, “Physiologically active porcine peptide (CNP-53)” (Matsuo; Hisayuki, priority 1990, dated 1994):

Key:
[1] = system: rats; details: administered to rats; Japanese Patent Application No. 105047/1990; cited from earlier work
[2] = system: anti-CNP-22 antiserum (antibody #171-4); assay: RIA system using anti-CNP-22 antiserum #171-4 and I125 labelled [Tyr0] CNP-22; type: binding, rabbit; details: for cross-reactivity of antibody #171-4: RIA, CNP-22 as standard
Procedure: Six milligrams of chemically synthesized CNP-22 and 15 mg of bovine thyroglobulin (product of Sigma Co.) were dissolved in 2 ml of 0.1M phosphate buffer (pH 7.4). To the solution, 100 μl of 5% glutaraldehyde was added and the mixture was agitated at 0° C. for 20 min to have CNP-22 bound to the thyroglobulin. Then, the solution was dialyzed five times against water (500 ml) and twice against 500 ml of 50 mM phosphate buffer (pH 7.4) containing 80 mM NaCl, whereby excess salts and reagents were removed from the reaction solution. Subsequently, 50 mM phosphate buffer containing 80 mM NaCl was added to the reaction solution to make a total volume of 12 ml. Thereafter, an equal volume of Freund's complete adjuvant was added to form an emulsion. A rabbit (New Zealand White) was repeatedly immunized with the emulsion at 20-day intervals so as to prepare an anti-CNP-22 antiserum. The thus prepared antiserum was named "#171-4".
In the first step, [Tyr°] CNP-22 [a peptide having a tyrosine residue (Tyr) added to the N-terminus of CNP-22] was chemically synthesized. Then, I^125 was introduced into the N-terminal Tyr residue by the method of Miyata et al. (Miyata, A. et al., Biochem. Biophys. Res. Commun., 129, 248-255, 1985) and the I^125 labelled monoiodo(Tyr°] CNP-22 was separated and isolated by reverse-phase HPLC.
In the next step, an RIA system was constructed by the following method using the thus I125 labelled [Tyr°] CNP-22 and the antibody (#171-4) prepared in Example 1-A.
As a buffer for the RIA system, 50 mM phosphate buffer (pH 7.4) containing 80 mM NaCl, 0.1% Triton X-100, 25 mM EDTA, 0.05% NaN3, 3.1% dextran T-40 and 0.25% BSA (as treated with N-ethylmaleimide) was used. A standard CNP-22 solution or assay sample (100 μl) and the antibody #171-4 prepared in Example 1-A (100 μl of a 60,000-fold dilution) were added to the buffer and the mixture was subjected to reaction at 4° C. for 24 h. […] Thereafter, polyethylene glycol was added and the radioactivity of the resulting precipitate was measured with a gamma-counter (ARC-600 of Aloka Co.).

[3] = system: chick rectum; assay: Chick rectum relaxant activity (method of Currie et al.); details: assay system of Currie et al.; compared with CNP-22
Procedure: The chick rectum relaxant activity of CNP-53 was measured in accordance with the method of Currie et al. (Currie et al., […]).

[4] = Diuretic and natriuretic actions of the purified peptide; type: in vivo; details: no method described

For “CNP-22: C-type natriuretic peptide of 22 amino acid residues from porcine brain, single S-S bond, no C-terminal tail (GLSKGCFGLKLDRIGSMSGLGC)”, the “natriuretic and hypotensive actions” value [1] is given as “natriuretic and hypotensive actions”.

In the case of “CNP-53: novel porcine brain peptide of 53 amino acid residues containing CNP-22 at the C-terminus, intramolecular S-S bond Cys37-Cys53 (DLRVDTKSRAAWARLLHEHPNARKYKGGNKKGLSKGCFGLKLDRIGSMSGLGC)”, the “immunoreactivity per molecule with the anti-CNP-22 antiserum” value ([2]; RIA of Example 1, assuming 53 residues containing CNP-22 at the C-terminus, compared with CNP-22) is reported as “comparable to that of CNP-22”, the “chick rectum relaxant activity” value [3] is reported as “comparable chick rectum relaxant activity to CNP-22” and the “diuretic and natriuretic actions” value [4] is reported as “diuretic and natriuretic actions”.

For “α-ANP: α-type atrial natriuretic peptide, single-stranded peptide of 28 amino acids with a single S-S bond [reference compound]”, the “cross-reactivity of antibody #171-4” value [2] was 0.015%.

B1: pBNP-26: porcine brain natriuretic peptide of 26 amino acid residues having a single S-S bond (peptide)
peptide: HPLGGAGLASELPGIQELLDRLRDRVSELQAERTDLEPLRQDRGLTEAWEAREAAPTGVLGPRSSIFQVLRGIRSPKTMRDSGCFGRRLDRIGSLSGLGCNVLRRY
For B1, the “cross-reactivity of antibody #171-4” value [2] was 0.46%.
